The IC50 is the midpoint of a concentration-inhibition curve.

SMILES strings stand for the structures. Entries after “also recorded” stand apart in the source; their conditions may differ.

Experiment [1] relates to ER-α-mediated transcription. Description: ERα transactivation luciferase reporter assay (pEREtkIIluc). Format: cell-based, Human. As to the method: ERα transactivation was monitored using a standard reporter construct consisting of two EREs upstream of a minimal thymidine kinase reporter linked to a gene encoding luciferase (pEREtkIIluc). Activity was normalized using a second plasmid consisting of the β-galactosisdase gene downstream of the constitutively active simian virus 40 promoter (SV40)(pCH110). The target cell lines indicated, were cultured in DCC medium as described previously. Cells were then seeded into 24-well plates at a density of 7×10^5 cells/well (MCF7, ZR75.1 and SKBR3). The following day the cells were transfected by lipofectin (Life Technologies, Inc.) at a ratio of 1:2.5 (DNA:lipid) with 0.25 μg of EREIItkluc and 0.25 μg of pCH110 for 4 hours in serum-free phenol red-free RPMI 1640 medium. The cells were subsequently placed in DCC medium and left to recover overnight. BT474 cells were treated similarly but with the exception that cells were seeded at a density of 1×10^5 cells/well and monolayers were transfected by lipofectamine 2000 (Life Technologies, Inc.) at a ratio of 1:2.5 with 0.4 μg pEREtkIIluc and 0.4 μg pCH110 per well for 4 hours. […] After treatment for 24 hours, the luciferase (Promega, UK) and β-galactosidase (Galacton Star, PE Biosystems, UK) activity were measured using a luminometer.
On the technique in general: Reporter assays use an easily measured gene product as a stand-in for the process of interest.

A further experiment deals with MCF7A2 cell line. Briefly: Cell cycle FACS analysis (propridium iodide), MCF7A2. Format: cell-based, Human. Conditions: MCF7A2, androstenedione, 72 hours. The protocol:
(§1) Cell lines were depleted of steroid for 3 days in DCC medium then seeded in 10 cm dishes at a density of 1×10^6 cells. After 48 hours, appropriate monolayers were pretreated with 6-[4-(4-ethyl-piperazin-1-ylmethyl)-phenyl]-7H-pyrrolo[2,3-d]pyrimidin-4-yl}-(1-[phenyl-ethyl)-amine for 1 hour in DCC medium. […] In the case of MCF7 and ZR75.1 the 6-[4-(4-ethyl-piperazin-1-ylmethyl)-phenyl]-7H-pyrrolo[2,3-d]pyrimidin-4-yl}-(1-[phenyl-ethyl)-amine concentration was increased to 5 μM. Cell were treated for 72 hours then fixed with 70% ethanol and stained with Propridium iodide. FACS analysis was used to establish the effect of the drug combinations on cell cycle.
On the technique in general: In flow cytometry, cells or beads pass a laser one at a time.

A further experiment relates to MCF7 (ER+,HER2−). Description: Proliferation assay, aromatase expressing MCF7 clones. It is filed as cell-based, Human. Conditions: for IC50: Homo sapiens; for proliferation response to increasing doses (fold change): MCF7 aromatase clones, versus DCC medium alone (E2, androstenedione) or androstenedione alone (4-OH tamoxifen, letrozole). The protocol:
(§2) Human breast cancer cell lines with varying expression of ER and HER2 were engineered to express aromatase. The cell lines were MCF7 (ER+,HER2−), ZR75.1 (ER+,HER2+), BT474 (ER+, HER2++) and SKBR3 (ER−, HER2++).
(§3) Proliferation assays were carried out as follows. The target cell lines listed above were cultured in phenol red-free RPMI 1640 medium containing 10% charcoal stripped foetal calf serum and 10[…]g.ml insulin (DCC medium), with daily changes for 3 days. The cell lines were then seeded in to 12-well plates at an appropriate density (MCF7 1×10^4/well, ZR75.1 2×10^4/well, BT474 2×10^4/well, SKBR3 1×10^4/well). After 24-48 hours, the cell monolayers were treated with increasing concentrations of androstenedione or E2. […] Drug treatments were changed daily over a period of 6 days. Cell number was determined using a Z1 Coulter Counter (Beckman Coulter, UK). With the threshold set at 15 μm diameter, 75% the average 20 μm size of MCF7 cells.

In the next experiment the test system is ZR75.1 (ER+,HER2+). Briefly: Proliferation assay, aromatase expressing ZR75.1 clones. It is filed as cell-based, Human. Conditions: for IC50: Homo sapiens; for proliferation response to increasing doses (fold change): ZR75.1 aromatase clones, versus DCC medium alone (E2, androstenedione) or androstenedione alone (4-OH tamoxifen, letrozole). The protocol:
as §2, §3

A further experiment deals with BT474 (ER+, HER2++). Description: Proliferation assay, aromatase expressing BT474 clones. Conditions: for proliferation response to increasing doses (fold change): BT474 aromatase clones, versus DCC medium alone (E2, androstenedione) or androstenedione alone (4-OH tamoxifen, letrozole); for IC50: Homo sapiens. Format: cell-based, Human. As to the method:
as §2, §3

The next experiment concerns BT474 A3. Briefly: Cell cycle FACS analysis (propridium iodide), BT474 A3. Format: cell-based, Human. Conditions: BT474 A3, androstenedione, 72 hours. As to the method: as §1
The test system of the next experiment is ZR75.1 tumour xenografts. Description: Growth of ZR75.1 tumour xenografts in vivo. On the set-up: species or system Mice. Conditions: ZR75.1A3 xenografts under androstenedione, p.o. As to the method: Experimental study groups consisted of 6 animals. All tumours were grown to approximately 7 mm diameter under E2 support. Once the tumours were established, the E2 pellet was removed and replaced with androstenedione. Mice were then randomised into cages and treated as described below. Tumours were assessed twice weekly by bi-dimensional caliper measurements and volume calculated based on the volume of a sphere 4/3 […]. Data was expressed as fold change in tumour volume compared to day zero treatment for each treatment group.
Effect of 6-[4-(4-ethyl-piperazin-1-ylmethyl)-phenyl]-7H-pyrrolo[2,3-d]pyrimidin-4-yl}-(1-[phenyl-ethyl)-amine in combination with endocrine therapy was investigated in ZR75.1A3.
Groups: • (i) Vehicle (10% N-methyl-pyrollidone (NMP)/90% polyethylene glycol (PEG 300)).

A further experiment has as its system SKBR3 (ER−, HER2++). Briefly: Proliferation assay, SKBR3 clones. Conditions: Homo sapiens, SK-BR-3; effect on proliferation, fold change compared to DCC medium alone. It is filed as cell-based. As to the method: as §2
as §3, with “cells. Cell counts were averaged for each triplicate treatment and normalised against the control sample to give the average fold-difference in cell growth.” for “cells.”

In another experiment the test system is total or pHER2. Description: Western blot of HER2 signal transduction: HER2. Format: cell-based, Human. Conditions: 0.1, 1 and 10 μM, 8 hours. As to the method: (§4) Western Blot analysis of the effect of 6-[4-(4-ethyl-piperazin-1-ylmethyl)-phenyl]-7H-pyrrolo[2,3-d]pyrimidin-4-yl}-(1-[phenyl-ethyl)-amine on HER2 signal transduction.
(§5) Target cell lines were stripped of steroid for 3 days in DCC medium prior to seeding at a density of 1.5-2×10^6 cells per 10 cm dish. Monolayers were left to acclimatize for 24 hours prior to treatment with 0, 0.1, 1 and 10 μM 6-[4-(4-ethyl-piperazin-1-ylmethyl)-phenyl]-7H-pyrrolo[2,3-d]pyrimidin-4-yl}-(1-[phenyl-ethyl)-amine in DCC medium for 8 hours. […] The protein concentration was then quantified using BioRad protein assay kit (Bio Rad, UK). […] Filters were blocked (10 mM Tris-HCl, pH 8.3, 150 mM NaCl containing 4% milk powder) washed twice in PBS containing 0.025% Tween-20 and probed with specific antibodies (p HER2 and total HER2 (Upstate, UK), pAKT, total AKT, pMAPK and total MAPK (Cell signaling, UK) and HRP-conjugated secondary antibody (Amersham Pharmacia Biotech, UK). The antibodies were diluted 1/1000 in 1.5% bovine serum albumin, 10 mM Tris-HCl, pH 8.3, 150 mM NaCl, 0.025% Tween-20 and 0.01% sodium azide. Immuno complexes were detected using Ultra-Signal chemiluminescence kit (Pierce and Warriner, UK). Chemiluminescence was quantified using Fluro-S and analysed using Quantity One software (BioRad, UK).
Background: In western blotting, separated proteins are transferred to a membrane and probed.

In a further experiment the test system is pMAPK. Briefly: Western blot of HER2 signal transduction: MAPK. Format: cell-based, Human. Conditions: 0.1, 1 and 10 μM, 8 hours. The protocol: as §4, §5
The next experiment deals with pAKT. Description: Western blot of HER2 signal transduction: AKT. It is filed as cell-based, Human. Conditions: all of the cell lines tested; 0.1, 1 and 10 μM, 8 hours. The protocol: as §4, §5

Regarding `CC/C(=C(\c1ccccc1)c1ccc(OCCN(C)C)cc1)c1ccccc1` [Tamoxifen], in experiment [1] (ER+ cell lines), the ER-α-mediated transcription result is given as “inhibited”. Also, the “number of cells in G0/G1” value in the experiment with MCF7A2 cell line was “increase in the number of cells in G0/G1”.
With `N#Cc1ccc(C(c2ccc(C#N)cc2)n2cncn2)cc1` [Letrozole, 4-[α-(4-cyanophenyl)-1-(1,2,4-triazolyl)methyl]-benzonitrile], the half-maximal inhibitory concentration (IC50) with MCF7 (ER+,HER2−) (MCF7, 144 h, inhibition of proliferation, aromatase expressing clones, androstenedione, 6 days) is 5 nM; in the experiment on ZR75.1 (ER+,HER2+) (ZR-75-1, 144 h, inhibition of proliferation, aromatase expressing clones, androstenedione, 6 days) it was 1 nM; in the experiment on BT474 (ER+, HER2++) (BT-474, 144 h, inhibition of proliferation, aromatase expressing clones, androstenedione, 6 days), 5 nM. Further, the “proliferation response to increasing doses (fold change)” value is reported as “dose dependent decrease in proliferation” with MCF7 (ER+,HER2−); “dose dependent decrease in proliferation” in the experiment with ZR75.1 (ER+,HER2+); “dose dependent decrease in proliferation” in the experiment on BT474 (ER+, HER2++). For the same compound, in experiment [1] (ER+ cell lines), the ER-α-mediated transcription result is “inhibited”. The figures for the “number of cells in G0/G1” value in the experiment on MCF7A2 cell line and with BT474 A3 were “increase in the number of cells in G0/G1” and “more effective than tamoxifen at arresting cells in G0/G1”, respectively. Moreover, in the experiment with ZR75.1 tumour xenografts, the “tumour growth / tumour volume (fold change compared to day zero)” value was “markedly inhibited; also recorded: more effective than 4-OH tamoxifen alone or in combination with AEE788”.
On to `CCN1CCN(Cc2ccc(-c3cc4c(N[C@H](C)c5ccccc5)ncnc4[nH]3)cc2)CC1` [{6-[4-(4-ethyl-piperazin-1-ylmethyl)-phenyl]-7H-pyrrolo[2,3-d]pyrimidin-4-yl}-(1-[phenyl-ethyl)-amine], for which the IC50 with MCF7 (ER+,HER2−) (MCF7, effect on proliferation, fold change compared to DCC medium alone) was 5000 to 10000 nM; in the experiment with ZR75.1 (ER+,HER2+) (ZR-75-1, effect on proliferation, fold change compared to DCC medium alone), 2000 to 5000 nM; in the experiment with BT474 (ER+, HER2++) (BT-474, effect on proliferation, fold change compared to DCC medium alone) it was 500 nM; in the experiment with SKBR3 (ER−, HER2++), 1500 nM. In addition, the ER-α-mediated transcription entry in experiment [1] (cell line BT474 (ER+, HER2++), basal and AND-induced) is listed as “dose dependent decrease”. For the same compound, the ER-mediated transcription entry in experiment [1] (cell lines expressing low levels of HER2 (MCF7 and ZR75.1)) is recorded as “little effect”. In the experiment on total or pHER2, the “effect on total or pHER2” value is given as “no obvious effect on total or pHER2”. The “effect on pMAPK” value in the experiment on pMAPK (MCF7 cells) is “no effect on MCF7 cells”; with pMAPK (ZR75.1, BT474 and SKBR3 cell lines) it was “decrease of pMAPK”. Moreover, the “effect on pAKT” value in the experiment on pAKT was “decreased in a dose dependent manner”. Further, the “number of cells in G0/G1” value in the experiment with MCF7A2 cell line is “increase in the number of cells in G0/G1”; with BT474 A3 it was “more effective than tamoxifen at arresting cells in G0/G1”. Moreover, the “tumour growth / tumour volume (fold change compared to day zero)” value in the experiment with ZR75.1 tumour xenografts is reported as “modest inhibitory effect on tumour growth in the magnitude of that seen with tamoxifen”.
Turning to `CC/C(=C(\c1ccc(O)cc1)c1ccc(OCCN(C)C)cc1)c1ccccc1` [4-OH tamoxifen], the “proliferation response to increasing doses (fold change)” value is on record as “dose dependent decrease in proliferation” in the experiment with MCF7 (ER+,HER2−); “dose dependent decrease in proliferation” in the experiment with ZR75.1 (ER+,HER2+); “dose dependent decrease in proliferation” in the experiment on BT474 (ER+, HER2++). Besides, in the experiment with ZR75.1 tumour xenografts, the “tumour growth / tumour volume (fold change compared to day zero)” value is on record as “as affective as AEE788”.
For the compound `C[C@]12CCC(=O)C=C1CC[C@@H]1[C@@H]2CC[C@]2(C)C(=O)CC[C@@H]12` [androstenedione], the “proliferation response to increasing doses (fold change)” value with MCF7 (ER+,HER2−) was “dose dependent increase in proliferation”; with ZR75.1 (ER+,HER2+), “dose dependent increase in proliferation”; with BT474 (ER+, HER2++), “dose dependent increase in proliferation”. In addition, in experiment [1] (ER+ cell lines), the ER-α-mediated transcription result was “increased ER-[…]-mediated transcription in a dose-dependent manner”.
As to `C[C@]12CC[C@@H]3c4ccc(O)cc4CC[C@H]3[C@@H]1CC[C@@H]2O` [E2], the “proliferation response to increasing doses (fold change)” value with MCF7 (ER+,HER2−) is recorded as “dose dependent increase in proliferation”; with ZR75.1 (ER+,HER2+), “dose dependent increase in proliferation”; in the experiment with BT474 (ER+, HER2++), “dose dependent increase in proliferation”. The ER-α-mediated transcription result in experiment [1] (ER+ cell lines) is given as “increased ER-[…]-mediated transcription in a dose-dependent manner”.

The record behind these values is patent US20060148772A1, “Combination” (priority 2004, published 2006).
